# Test results published in PMC8869984, “Multifunctional Silver(I) Complexes with Metronidazole Drug Reveal Antimicrobial Properties and Antitumor Activity against Human Hepatoma and Colorectal Adenocarcinoma Cells” (Cancers, 2022).
# Key:
# [1] = test system: K. pneumoniae ATCC 13883; experiment: micro-dilution broth method (MIC, MBC); type: cell-based, Klebsiella pneumoniae
# [2] = test system: A. israeli ATCC 10049; experiment: micro-dilution broth method (MIC, MBC); type: cell-based, Actinomyces israelii
# [3] = test system: F. nucleatum ATCC 25586; experiment: micro-dilution broth method (MIC, MBC); type: cell-based, Fusobacterium nucleatum
# [4] = test system: V. parvula ATCC 10790; experiment: micro-dilution broth method (MIC, MBC); type: cell-based, Veillonella parvula
# [5] = test system: Caco-2 cells; experiment: LDH leakage assay (membrane integrity), 72 h exposure; type: cell-based, human; details: Caco-2, LDH, Figure 6
# [6] = test system: Caco-2 cells; experiment: NRU assay (lysosomal activity), 72 h exposure; type: cell-based, human; details: Caco-2, NRU, Figure 6
# [7] = test system: H. pylori ATCC 43504; experiment: micro-dilution broth method (MIC, MBC); type: cell-based
# [8] = test system: reference aerobic and anaerobic microorganisms (ATCC); experiment: micro-dilution broth method, whole panel of reference strains; type: cell-based; details: against the majority of tested bacterial strains
# [9] = test system: E. coli ATCC 25922; experiment: micro-dilution broth method (MIC, MBC); type: cell-based, Escherichia coli
# [10] = test system: P. aeruginosa ATCC 9027; experiment: micro-dilution broth method (MIC, MBC); type: cell-based, Pseudomonas aeruginosa
# [11] = test system: M. luteus ATCC 10240; experiment: micro-dilution broth method (MIC, MBC); type: cell-based, Micrococcus luteus
# [12] = test system: P. intermedia ATCC 25611; experiment: micro-dilution broth method (MIC, MBC); type: cell-based
# [13] = test system: B. cereus ATCC 10876; experiment: micro-dilution broth method (MIC, MBC); type: cell-based, Bacillus cereus
# [14] = test system: E. faecalis ATCC 29212; experiment: micro-dilution broth method (MIC, MBC); type: cell-based, Enterococcus faecalis
# [15] = test system: S. aureus biofilm; experiment: qualitative antibiofilm activity, confocal laser scanning microscope (CLSM); details: 500 mg/L, 24 h exposure
# [16] = test system: C. jejunii ATCC 33291; experiment: micro-dilution broth method (MIC, MBC); type: cell-based, Campylobacter jejunii
# [17] = test system: S. epidermidis ATCC 12228; experiment: micro-dilution broth method (MIC, MBC); type: cell-based, Staphylococcus epidermidis
# [18] = test system: P. acnes ATCC 11827; experiment: micro-dilution broth method (MIC, MBC); type: cell-based, Propionibacterium acnes; details: P. acnes ATCC 11827, value in brackets
# [19] = test system: S. aureus ATCC 25923; experiment: micro-dilution broth method (MIC, MBC); type: cell-based, Staphylococcus aureus
# [20] = test system: C. perfringens ATCC 13124; experiment: microbe, parasite or virus in culture; type: cell-based, Clostridium perfringens
# [21] = test system: S. typhimurium ATCC 14028; experiment: micro-dilution broth method (MIC, MBC); type: cell-based, Salmonella Typhimurium
# [22] = test system: B. subtilis ATCC 6633; experiment: micro-dilution broth method (MIC, MBC); type: cell-based, Bacillus subtilis
# [23] = test system: B. fragilis ATCC 10240; experiment: micro-dilution broth method (MIC, MBC); type: cell-based, Bacteroides fragilis
# [24] = test system: Caco-2 cells; experiment: TPC assay (total protein content), 72 h exposure; type: cell-based, human; details: Caco-2, TPC, Figure 6
# [25] = test system: Caco-2 cells; experiment: MTT assay (mitochondrial activity), 72 h exposure; type: cell-based, human; details: Caco-2, MTT, Figure 6
# [26] = K. pneumoniae ATCC 13883, value in brackets
# [27] = A. israeli ATCC 10049, value in brackets
# [28] = F. nucleatum ATCC 25586, value in brackets
# [29] = V. parvula ATCC 10790, value in brackets
# [30] = H. pylori ATCC 43504, value in brackets
# [31] = E. coli ATCC 25922, value in brackets
# [32] = P. aeruginosa ATCC 9027, value in brackets
# [33] = M. luteus ATCC 10240, value in brackets
# [34] = P. intermedia ATCC 25611, value in brackets
# [35] = B. cereus ATCC 10876, value in brackets
# [36] = E. faecalis ATCC 29212, value in brackets
# [37] = C. jejunii ATCC 33291, value in brackets
# [38] = S. epidermidis ATCC 12228, value in brackets
# [39] = S. aureus ATCC 25923, value in brackets
# [40] = C. perfringens ATCC 13124, value in brackets
# [41] = S. typhimurium ATCC 14028, value in brackets
# [42] = B. subtilis ATCC 6633, value in brackets
# [43] = B. fragilis ATCC 10240, value in brackets
smiles,measurement,setting,value
Cc1ncc([N+](=O)[O-])n1CCO.Cc1ncc([N+](=O)[O-])n1CCO.O=[N+]([O-])[O-].[Ag+] [[Ag(MTZ)2NO3]],MBC,[1]; K. pneumoniae ATCC 13883,31.3 mg/L
same,MIC,[1]; K. pneumoniae ATCC 13883,15.6 mg/L
same,MBC,[1]; [26],0.1 µM/mL
same,MIC,[1]; [26],0.049 µM/mL
same,MBC,[2]; A. israeli ATCC 10049,3.9 mg/L
same,MIC,[2]; A. israeli ATCC 10049,0.49 mg/L
same,MBC,[2]; [27],0.012 µM/mL
same,MIC,[2]; [27],0.0015 µM/mL
same,MBC,[3]; F. nucleatum ATCC 25586,0.98 mg/L
same,MIC,[3]; F. nucleatum ATCC 25586,0.49 mg/L
same,MBC,[3]; [28],0.003 µM/mL
same,MIC,[3]; [28],0.0015 µM/mL
same,MBC,[4]; V. parvula ATCC 10790,1.95 mg/L
same,MIC,[4]; V. parvula ATCC 10790,1.95 mg/L
same,MBC,[4]; [29],0.006 µM/mL
same,MIC,[4]; [29],0.006 µM/mL
same,lowest concentration with significant (p ≤ 0.05) disintegration of cellular membranes,[5],1.0 µM
same,lowest concentration with inhibition of lysosomal activity,[6],5.0 µM
same,MBC,[7]; H. pylori ATCC 43504,15.6 mg/L
same,MIC,[7]; H. pylori ATCC 43504,15.6 mg/L
same,MBC,[7]; [30],0.049 µM/mL
same,MIC,[7]; [30],0.049 µM/mL
same,"minimal inhibition concentration (MIC), range",[8],0.24 to 250 mg/L
same,MBC,[9]; E. coli ATCC 25922,31.3 mg/L
same,MIC,[9]; E. coli ATCC 25922,15.6 mg/L
same,MBC,[9]; [31],0.1 µM/mL
same,MIC,[9]; [31],0.049 µM/mL
same,MBC,[10]; P. aeruginosa ATCC 9027,15.6 mg/L
same,MIC,[10]; P. aeruginosa ATCC 9027,7.8 mg/L
same,MBC,[10]; [32],0.049 µM/mL
same,MIC,[10]; [32],0.025 µM/mL
same,MBC,[11]; M. luteus ATCC 10240,62.5 mg/L
same,MIC,[11]; M. luteus ATCC 10240,7.8 mg/L
same,MBC,[11]; [33],0.2 µM/mL
same,MIC,[11]; [33],0.025 µM/mL
same,MBC,[12]; P. intermedia ATCC 25611,0.98 mg/L
same,MIC,[12]; P. intermedia ATCC 25611,0.98 mg/L
same,MBC,[12]; [34],0.003 µM/mL
same,MIC,[12]; [34],0.003 µM/mL
same,MIC,[13]; B. cereus ATCC 10876,62.5 mg/L
same,MBC,[13]; [35],0.4 µM/mL
same,MIC,[13]; [35],0.2 µM/mL
same,MBC,[14]; E. faecalis ATCC 29212,62.5 mg/L
same,MIC,[14]; E. faecalis ATCC 29212,31.3 mg/L
same,MBC,[14]; [36],0.2 µM/mL
same,MIC,[14]; [36],0.1 µM/mL
same,"effect on biofilm (CLSM, qualitative)",[15],significantly reduced biofilm density
same,MIC,[16]; C. jejunii ATCC 33291,31.3 mg/L
same,MBC,[16]; [37],0.4 µM/mL
same,MIC,[16]; [37],0.1 µM/mL
same,MBC,[17]; S. epidermidis ATCC 12228,62.5 mg/L
same,MIC,[17]; S. epidermidis ATCC 12228,7.8 mg/L
same,MBC,[17]; [38],0.2 µM/mL
same,MIC,[17]; [38],0.025 µM/mL
same,MBC,[18],0.4 µM/mL
same,MIC,[18],0.4 µM/mL
same,MBC,[19]; S. aureus ATCC 25923,62.5 mg/L
same,MIC,[19]; S. aureus ATCC 25923,15.6 mg/L
same,MBC,[19]; [39],0.2 µM/mL
same,MIC,[19]; [39],0.049 µM/mL
same,MBC,[20]; C. perfringens ATCC 13124,1.95 mg/L
same,MIC,[20]; C. perfringens ATCC 13124,1.95 mg/L
same,MBC,[20]; [40],0.006 µM/mL
same,MIC,[20]; [40],0.006 µM/mL
same,MBC,[21]; S. typhimurium ATCC 14028,31.3 mg/L
same,MIC,[21]; S. typhimurium ATCC 14028,15.6 mg/L
same,MBC,[21]; [41],0.1 µM/mL
same,MIC,[21]; [41],0.049 µM/mL
same,MBC,[22]; B. subtilis ATCC 6633,15.6 mg/L
same,MIC,[22]; B. subtilis ATCC 6633,15.6 mg/L
same,MBC,[22]; [42],0.049 µM/mL
same,MIC,[22]; [42],0.049 µM/mL
same,MBC,[23]; B. fragilis ATCC 10240,0.98 mg/L
same,MIC,[23]; B. fragilis ATCC 10240,0.98 mg/L
same,MBC,[23]; [43],0.003 µM/mL
same,MIC,[23]; [43],0.003 µM/mL
same,lowest concentration with decreased total protein content,[24],10.0 µM
same,lowest concentration with inhibition of mitochondrial activity,[25],5.0 µM
